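Following 48 hours of exposure in 96-well plates, responses at five concentrations were used to interpolate endpoints linearly. Definition used: TGI = concentration required for complete inhibition of growth.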
Legend:
Test in all cases: NCI anticancer screen, dose series, 48 h
A549 NSCLC = system: A549 NSCLC
U251 CNS = system: U251 CNS
SW-620 colon = system: SW-620 colon
OVCAR-4 ovarian = system: OVCAR-4 ovarian
SK-MEL-5 melanoma = system: SK-MEL-5 melanoma
HCC-2998 colon = system: HCC-2998 colon
MOLT-4 leukemia = system: MOLT-4 leukemia
IGROV1 ovarian = system: IGROV1 ovarian
HOP-62 NSCLC = system: HOP-62 NSCLC
NCI-H460 lung = system: NCI-H460 lung
UACC-62 melanoma = system: UACC-62 melanoma
HL-60(TB) leukemia = system: HL-60(TB) leukemia
CCRF-CEM leukemia = system: CCRF-CEM leukemia
OVCAR-8 ovarian = system: OVCAR-8 ovarian
SK-MEL-28 melanoma = system: SK-MEL-28 melanoma
K-562 leukemia = system: K-562 leukemia
HT29 colon = system: HT29 colon
NCI-H226 lung = system: NCI-H226 lung
NCI-H23 lung = system: NCI-H23 lung
SNB-19 CNS = system: SNB-19 CNS

| SMILES | TGI (A549 NSCLC) [µM] | TGI (U251 CNS) [µM] | TGI (SW-620 colon) [µM] | TGI (OVCAR-4 ovarian) [µM] | TGI (SK-MEL-5 melanoma) [µM] | TGI (HCC-2998 colon) [µM] | TGI (MOLT-4 leukemia) [µM] | TGI (IGROV1 ovarian) [µM] | TGI (HOP-62 NSCLC) [µM] | TGI (NCI-H460 lung) [µM] | TGI (UACC-62 melanoma) [µM] | TGI (HL-60(TB) leukemia) [µM] | TGI (CCRF-CEM leukemia) [µM] | TGI (OVCAR-8 ovarian) [µM] | TGI (SK-MEL-28 melanoma) [µM] | TGI (K-562 leukemia) [µM] | TGI (HT29 colon) [µM] | TGI (NCI-H226 lung) [µM] | TGI (NCI-H23 lung) [µM] | TGI (SNB-19 CNS) [µM] |
| --- | --- | --- | --- | --- | --- | --- | --- | --- | --- | --- | --- | --- | --- | --- | --- | --- | --- | --- | --- | --- |
| O=c1nc2sc3ccc4ccccc4c3n2[nH]c1=O | > 100 | > 100 | > 100 | 81.2 | > 100 | > 100 | > 100 | > 100 | 71.5 | > 100 | > 100 | > 100 | > 100 | > 100 | > 100 | > 100 | > 100 | > 100 | > 100 | > 100 |
| CCCCN=C1OCc2[nH][nH]c(=O)c21 | > 100 | > 100 | > 100 | > 100 | > 100 | > 100 | > 100 | > 100 | > 100 | > 100 | > 100 | > 100 | > 100 | > 100 | > 100 | > 100 | > 100 | > 100 | > 100 | > 100 |
| C[C@]12CC[C@@H]3c4ccc(OCCN5CCCC5)cc4CC[C@H]3[C@@H]1CCC2=O | > 100 | > 100 | > 100 | > 100 | 30 | 25.1 | 70.2 | 40.7 | 44.5 | 53.9 | 69.8 | > 100 | > 100 | > 100 | > 100 | > 100 | > 100 | 54 | > 100 | > 100 |

From PubChem BioAssay (NCI)
